Laboratory results taken from patent US7432260B2, “Pyrimidine compounds” (Cyclacel Limted, priority 2002, dated 2008).
pIC50: −log10 of the molar value.

Legend:
[1] = system: A549; assay: 72-h MTT cytotoxicity assay A549; type: cell-based; details: Homo sapiens, A549, 72 h, Table 4
Description: (§1) MTT cytotoxicity assay. […] Standard 72-h MTT (thiazolyl blue; 3-[4,5-dimethylthiazol-2-yl]-2,5-diphenyltetrazolium bromide) assays were performed (Haselsberger, K.; Peterson, D. C.; Thomas, D. G.; Darling, J. L. Anti Cancer Drugs 1996, 7, 331-8; Loveland, B. E.; Johns, T. G.; Mackay, I. R.; Vaillant, F.; Wang, Z. X.; Hertzog, P. J. Biochemistry International 1992, 27, 501-10). In short: cells were seeded into 96-well plates according to doubling time and incubated overnight at 37° C. Test compounds were made up in DMSO and a 1/3 dilution series prepared in 100 μL cell media, added to cells (in triplicates) and incubated for 72 ho at 37° C. MTT was made up as a stock of 5 mg/mL in cell media and filter-sterilised. Media was removed from cells followed by a wash with 200 μL PBS.
(§2) MTT solution was then added at 20 μL per well and incubated in the dark at 37° C. for 4 h. MTT solution was removed and cells again washed with 200 μL PBS. MTT dye was solubilised with 200 μL per well of DMSO with agitation.

[2] = system: HT29; assay: 72-h MTT cytotoxicity assay HT29; type: cell-based; details: Homo sapiens, HT-29, 72 h, Table 4
Description: as §1, §2

[3] = biological target: CDK2/cyclin A (Homo sapiens, UniProt P24941); assay: Kinase assay CDK2/cyclin A; type: biochemical; details: Table 2; read-out: Kinase Inhibition IC50 CDK2 cyclin A
Description: (§3) Kinase assays. […] This was achieved by measurement of incorporation of radioactive phosphate from ATP into appropriate polypeptide substrates. Recombinant protein kinases and kinase complexes were produced or obtained commercially. Assays were performed using 96-well plates and appropriate assay buffers (typically 25 mM β-glycerophosphate, 20 mM MOPS, 5 mM EGTA, 1 mM DTT, 1 mM […], pH 7.4), into which were added 2-4 μg of active enzyme with appropriate substrates. The reactions were initiated by addition of Mg/ATP mix (15 mM MgCl2+100 μM ATP with 30-50 kBq per well of [γ-^32P]-ATP) and mixtures incubated as required at 30° C. Reactions were stopped on ice, followed by filtration through p81 filterplates or GF/C filterplates (Whatman Polyfiltronics, Kent, UK). After washing 3 times with 75 mM aq orthophosphoric acid, plates were dried, scintillant added and incorporated radioactivity measured in a scintillation counter (TopCount, Packard Instruments, Pangbourne, Berks, UK). Compounds for kinase assay were made-up as 10 mM stocks in DMSO and diluted into 10% DMSO inrassay buffer.

[4] = biological target: CDK7/cyclin H (Homo sapiens, UniProt P50613); assay: CDK7 assay; type: biochemical; details: Table 2; read-out: Kinase Inhibition IC50 CDK7 cyclin H
Description: as §3
(§4) CDK 7 and 9 assays. CTD peptide substrate (biotinyl-Ahx-(Tyr-Ser-Pro-Thr-Ser-Pro-Ser)4-NH2; 1-2 mg/mL) and recombinant human CDK7/cyclin H, CDK9/cyclin T1, or CDK9/cyclin K (0.5-2 μg) were incubated for 45 min at 30° C. in the presence of varying amounts of test compound in 20 mM MOPS pH 7.2, 25 mM β-glycerophosphate, 5 mM EGTA, 1 mM DTT, 1 mM sodium vanadate, 15 mM MgCl2, and 100 μM ATP (containing a trace amount of ^32PγATP) in a total volume of 25 μL in a 96-well microtiter plate. The reaction was stopped by placing the plate on ice for 2 min. Avidin (50 μg) was added to each well, and the plate was incubated at room temp for 30 min. The samples were transferred to a 96-well P81 filter plate, and washed (4×200 μL per well) with 75 mM phosphoric acid. Microscint 40 scintillation liquid (50 μL) was added to each well, and the amount of ^32P incorporation for each sample was measured using a Packard Topcount microplate scintillation counter.

[5] = biological target: CDK2/cyclin E (Homo sapiens, UniProt P24941); assay: Kinase assay CDK2/cyclin E; type: biochemical; details: Table 2; read-out: Kinase Inhibition IC50 CDK2 cyclin E
Description: as §3

[6] = system: Saos-2; assay: 72-h MTT cytotoxicity assay Saos-2; type: cell-based; details: Homo sapiens, SAOS-2, 72 h, Table 4
Description: as §1, §2

[7] = biological target: CDK4/cyclin D1 (Homo sapiens, UniProt P11802); assay: Kinase assay CDK4/cyclin D1; type: biochemical; details: Table 2; read-out: Kinase Inhibition IC50 CDK4 cyclin D1
Description: as §3

[8] = biological target: CDK1/cyclin B (Homo sapiens, UniProt P06493); assay: Kinase assay CDK1/cyclin B; type: biochemical; details: Table 2; read-out: Kinase Inhibition IC50 CDK1 cyclin B
Description: as §3

[9] = biological target: CDK9/cyclin T1 (Homo sapiens, UniProt P50750); assay: CDK9 assay; type: biochemical; details: Table 2; read-out: Kinase Inhibition IC50 CDK9 cyclin T1
Description: as §3, §4

Sequence of CDK1/cyclin B (P06493 whole entry): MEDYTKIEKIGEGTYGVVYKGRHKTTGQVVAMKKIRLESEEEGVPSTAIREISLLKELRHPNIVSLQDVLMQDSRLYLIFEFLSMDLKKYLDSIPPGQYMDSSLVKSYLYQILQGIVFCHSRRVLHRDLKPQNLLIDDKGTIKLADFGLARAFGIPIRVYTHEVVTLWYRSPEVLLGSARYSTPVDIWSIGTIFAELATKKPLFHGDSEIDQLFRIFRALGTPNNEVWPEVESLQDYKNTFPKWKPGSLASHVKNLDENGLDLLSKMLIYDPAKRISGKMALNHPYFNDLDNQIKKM
Sequence of CDK1/cyclin B (P14635 whole entry partner): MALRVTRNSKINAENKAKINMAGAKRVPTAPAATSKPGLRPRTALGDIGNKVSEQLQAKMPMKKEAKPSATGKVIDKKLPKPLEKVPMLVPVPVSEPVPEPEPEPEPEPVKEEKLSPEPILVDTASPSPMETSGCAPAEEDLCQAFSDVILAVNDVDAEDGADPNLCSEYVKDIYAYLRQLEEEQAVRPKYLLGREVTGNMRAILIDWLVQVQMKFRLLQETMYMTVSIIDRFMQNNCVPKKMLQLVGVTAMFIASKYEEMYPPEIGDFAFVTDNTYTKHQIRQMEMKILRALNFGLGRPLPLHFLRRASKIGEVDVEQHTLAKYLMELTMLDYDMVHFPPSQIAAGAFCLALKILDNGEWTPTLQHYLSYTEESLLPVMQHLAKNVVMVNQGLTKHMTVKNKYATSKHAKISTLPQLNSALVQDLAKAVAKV
Sequence of CDK7/cyclin H (P50613 whole entry): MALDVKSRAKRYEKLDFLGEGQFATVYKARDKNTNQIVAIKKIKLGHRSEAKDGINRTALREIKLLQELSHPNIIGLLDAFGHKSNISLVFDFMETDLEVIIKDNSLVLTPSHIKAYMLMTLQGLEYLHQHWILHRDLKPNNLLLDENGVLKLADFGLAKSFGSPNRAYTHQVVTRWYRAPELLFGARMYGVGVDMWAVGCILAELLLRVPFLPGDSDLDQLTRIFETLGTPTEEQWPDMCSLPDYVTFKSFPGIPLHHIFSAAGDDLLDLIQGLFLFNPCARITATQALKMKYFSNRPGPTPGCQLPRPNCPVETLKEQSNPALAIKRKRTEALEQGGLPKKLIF
Sequence of CDK9/cyclin T1 (P50750 whole entry): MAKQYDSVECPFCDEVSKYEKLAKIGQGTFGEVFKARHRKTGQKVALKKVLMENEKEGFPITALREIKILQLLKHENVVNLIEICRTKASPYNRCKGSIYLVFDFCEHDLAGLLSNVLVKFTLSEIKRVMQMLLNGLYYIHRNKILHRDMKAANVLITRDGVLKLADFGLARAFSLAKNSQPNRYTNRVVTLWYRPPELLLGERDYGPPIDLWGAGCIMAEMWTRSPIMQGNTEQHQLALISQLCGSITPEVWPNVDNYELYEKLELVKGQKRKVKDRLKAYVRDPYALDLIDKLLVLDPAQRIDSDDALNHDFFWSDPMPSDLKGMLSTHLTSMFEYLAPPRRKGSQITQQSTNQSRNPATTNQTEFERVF
Sequence of CDK9/cyclin T1 (O60563 whole entry partner): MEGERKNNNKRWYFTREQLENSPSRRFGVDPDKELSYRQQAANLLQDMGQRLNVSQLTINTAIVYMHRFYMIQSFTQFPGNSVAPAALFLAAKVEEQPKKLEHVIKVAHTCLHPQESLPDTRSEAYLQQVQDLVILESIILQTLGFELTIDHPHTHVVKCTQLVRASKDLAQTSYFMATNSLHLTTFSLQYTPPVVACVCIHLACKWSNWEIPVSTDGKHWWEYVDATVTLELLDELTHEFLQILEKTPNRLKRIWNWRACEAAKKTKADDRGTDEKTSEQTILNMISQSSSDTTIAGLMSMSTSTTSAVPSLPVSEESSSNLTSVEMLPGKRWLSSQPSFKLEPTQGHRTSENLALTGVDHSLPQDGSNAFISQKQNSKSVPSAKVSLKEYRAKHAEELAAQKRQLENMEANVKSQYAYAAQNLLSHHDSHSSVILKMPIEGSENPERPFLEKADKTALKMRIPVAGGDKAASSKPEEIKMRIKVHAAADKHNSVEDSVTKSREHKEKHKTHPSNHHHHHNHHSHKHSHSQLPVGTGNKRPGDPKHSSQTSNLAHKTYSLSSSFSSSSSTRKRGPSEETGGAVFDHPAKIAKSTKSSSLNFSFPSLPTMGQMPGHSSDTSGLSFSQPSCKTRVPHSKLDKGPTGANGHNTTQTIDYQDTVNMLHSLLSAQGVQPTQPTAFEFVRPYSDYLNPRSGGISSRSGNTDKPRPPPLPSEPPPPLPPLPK
Sequence of CDK4/cyclin D1 (P11802 whole entry): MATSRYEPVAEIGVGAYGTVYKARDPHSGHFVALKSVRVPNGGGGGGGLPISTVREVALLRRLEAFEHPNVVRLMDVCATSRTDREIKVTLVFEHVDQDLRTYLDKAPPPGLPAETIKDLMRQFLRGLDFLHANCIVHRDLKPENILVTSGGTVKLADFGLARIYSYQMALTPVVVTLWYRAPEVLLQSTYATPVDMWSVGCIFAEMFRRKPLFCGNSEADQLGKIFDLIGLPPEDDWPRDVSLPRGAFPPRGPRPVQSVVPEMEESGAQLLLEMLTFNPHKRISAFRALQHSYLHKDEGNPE
Sequence of CDK4/cyclin D1 (P24385 whole entry partner): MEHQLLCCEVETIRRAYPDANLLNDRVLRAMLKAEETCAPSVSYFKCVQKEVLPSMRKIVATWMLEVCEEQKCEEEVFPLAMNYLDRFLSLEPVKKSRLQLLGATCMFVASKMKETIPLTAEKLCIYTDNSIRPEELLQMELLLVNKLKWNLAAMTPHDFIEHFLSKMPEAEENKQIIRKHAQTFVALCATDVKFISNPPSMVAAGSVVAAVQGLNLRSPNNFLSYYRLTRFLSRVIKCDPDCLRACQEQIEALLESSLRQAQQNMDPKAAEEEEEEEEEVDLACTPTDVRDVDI

| Structure (SMILES) | pIC50 [3] | pIC50 [4] | pIC50 [5] | pIC50 [7] | pIC50 [8] | pIC50 [9] | pIC50 [1] | pIC50 [2] | pIC50 [6] |
| --- | --- | --- | --- | --- | --- | --- | --- | --- | --- |
| Cc1nc(C)c(-c2ccnc(Nc3ccc(N4CCN(CCOCCO)CC4)cc3)n2)s1 [Compound 7, [4-(2,4-Dimethyl-thiazol-5-yl)-pyrimidin-2-yl]-[4-(4′-2″-ethoxylethanolpiperazino)-phenyl]-amine] | 5.89 | 5.66 | 5.74 | 6.21 | 5.38 | – | 5.41 | 5.80 | 5.80 |
| Cc1nc(C)c(-c2ccnc(Nc3ccc(N4CCN(S(C)(=O)=O)CC4)cc3)n2)s1 [Compound 10, [4-(2,4-Dimethyl-thiazol-5-yl)-pyrimidin-2-yl]-[4-(4-methanesulfonyl-piperazin-1-yl)-phenyl]-amine] | – | – | – | 4.96 | 4.29 | – | 4.96 | 5.19 | – |
| Cc1nc(NC(=O)[C@@H](N)CO)sc1-c1ccnc(Nc2cccc([N+](=O)[O-])c2)n1 [Compound 14, (2S)-2-Amino-3-hydroxy-N-{4-methyl-5-[2-(3-nitro-phenylamino)-pyrimidin-4-yl]-thiazol-2-yl}-propionamide] | – | – | 7.17 | 5.66 | – | 6.47 | 6.00 | 6.14 | 5.82 |
| Cc1nc(NC(=O)[C@@H](N)[C@H](C)O)sc1-c1ccnc(Nc2cccc([N+](=O)[O-])c2)n1 [Compound 17, (2S,3S)-2-Amino-3-hydroxy-N-{4-methyl-5-[2-(3-nitro-phenylamino)-pyrimidin-4-yl]-thiazol-2-yl}-butyramide] | – | – | 6.68 | – | 5.70 | – | 5.96 | 5.92 | 5.92 |
| Cc1nc(NC(=O)CCCN)sc1-c1ccnc(Nc2cccc([N+](=O)[O-])c2)n1 [Compound 18, 4-Amino-N-{4-methyl-5-[2-(3-nitro-phenylamino)-pyrimidin-4-yl]-thiazol-2-yl}-butyramide] | – | – | 6.74 | 5.96 | – | 6.28 | 5.60 | 5.62 | 5.96 |
| Cc1nc(NC(=O)CCBr)sc1-c1ccnc(Nc2ccc(F)cc2)n1 [Compound 20, 3-Bromo-N-{5-[2-(4-fluoro-phenylamino)-pyrimidin-4-yl]-4-methyl-thiazol-2-yl}-propionamide] | 6.28 | – | 7.12 | 6.11 | 5.72 | 7.43 | 5.24 | 5.20 | – |
| Cc1nc(NC(=O)CCl)sc1-c1ccnc(Nc2ccc(F)cc2)n1 [Compound 33, 2-Chloro-N-{5-[2-(4-fluoro-phenylamino)-pyrimidin-4-yl]-4-methyl-thiazol-2-yl}-acetamide] | – | – | – | – | – | – | 6.48 | 6.96 | 6.52 |

Continued, in another order:

| pIC50 [3] | pIC50 [4] | pIC50 [5] | pIC50 [7] | pIC50 [8] | pIC50 [9] | Structure (SMILES) | pIC50 [1] | pIC50 [2] | pIC50 [6] |
| --- | --- | --- | --- | --- | --- | --- | --- | --- | --- |
| – | – | 5.96 | 6.36 | – | 8.24 | Cc1nc(NC(=O)CCl)sc1-c1ccnc(Nc2cccc([N+](=O)[O-])c2)n1 [Compound 24, 2-Chloro-N-{4-methyl-5-[2-(3-nitro-phenylamino)-pyrimidin-4-yl]-thiazol-2-yl}-acetamide] | 6.85 | 6.85 | 6.77 |
| 4.92 | – | 5.59 | 4.54 | 4.44 | – | Cc1nc(NC(=O)CN2CCN(C(=O)OC(C)(C)C)CC2)sc1-c1ccnc(Nc2cccc([N+](=O)[O-])c2)n1 [Compound 28, 4-({4-Methyl-5-[2-(3-nitro-phenylamino)-pyrimidin-4-yl]-thiazol-2-ylcarbamoyl}-methyl)-piperazine-1-carboxylic acid tert-butyl ester] | 5.00 | 5.17 | 4.82 |
| – | – | 6.52 | 5.25 | – | – | Cc1nc(NS(C)(=O)=O)sc1-c1ccnc(Nc2ccc(F)cc2)n1 [Compound 31, N-{5-[2-(4-Fluoro-phenylamino)-pyrimidin-4-yl]-4-methyl-thiazol-2-yl}-methanesulfonamide] | 5.70 | 5.39 | 6.09 |
| 5.52 | – | 6.10 | 5.33 | 4.82 | 5.74 | Cc1nc(NC(=O)CCN2CCOCC2)sc1-c1ccnc(Nc2ccc(Cl)cc2)n1 [Compound 35, N-{5-[2-(4-Chloro-phenylamino)-pyrimidin-4-yl]-4-methyl-thiazol-2-yl}-3-morpholin-4-yl-propionamide] | 4.82 | 5.11 | 4.59 |
| 5.77 | 5.46 | 5.68 | 5.59 | 4.92 | – | CC(=O)N(C)c1ccc(Nc2nccc(-c3sc(C)nc3C)n2)cc1 [Compound 48, N-{4-[4-(2,4-Dimethyl-thiazol-5-yl)-pyrimidin-2-ylamino]-phenyl}-N-methyl-acetamide] | 5.52 | 5.59 | 5.42 |
| 5.54 | 5.02 | 5.77 | 6.40 | 4.96 | – | Cc1nc(C)c(-c2ccnc(Nc3ccc(NC(=O)CN4CCOCC4)cc3)n2)s1 [Compound 51, N-{4-[4-(2,4-Dimethyl-thiazol-5-yl)-pyrimidin-2-ylamino]-phenyl}-2-morpholin-4-yl-acetamide] | 5.72 | 5.85 | 5.96 |
| 5.89 | 5.70 | 6.36 | 6.74 | 5.60 | – | Cc1nc(C)c(-c2ccnc(Nc3ccc(NC(=O)Cn4cncn4)cc3)n2)s1 [Compound 52, N-{4-[4-(2,4-Dimethyl-thiazol-5-yl)-pyrimidin-2-ylamino]-phenyl}-2-[1,2,4]triazol-1-yl-acetamide] | 5.80 | 5.80 | 5.96 |
| – | – | – | 8.15 | 6.01 | – | CNc1nc(C)c(-c2ccnc(Nc3ccc(N4CCNCC4)cc3)n2)s1 [Compound 62, [4-(4-Methyl-2-methylamino-thiazol-5-yl)-pyrimidin-2-yl]-(4-piperazin-l-yl-phenyl)-amine] | 6.72 | 6.74 | 6.59 |
| 9.00 | 4.96 | 7.55 | 5.42 | 7.32 | – | Cc1nc(C)c(-c2ccnc(Nc3ccc(S(C)(=O)=O)cc3)n2)s1 [Compound 85, [4-(2,4-Dimethyl-thiazol-5-yl)-pyrimidin-2-yl]-(4-methanesulfonyl-phenyl)-amine] | – | – | – |
| 7.00 | – | 6.96 | 6.20 | 6.92 | – | CNc1nc(C)c(-c2ccnc(Nc3cccc(CO)c3)n2)s1 [Compound 91, {3-[4-(4-Methyl-2-methylamino-thiazol-5-yl)-pyrimidin-2-ylamino]-phenyl}-methanol] | – | – | – |
